Where “and” joins values, the source holds several entries; their conditions need not be identical. Identical values can stand only once. Like-named read-outs stand apart in the source and are kept apart here.
Key:
MDA-MB-435 = experiment: NCI screen antiproliferative activity, breast MDA-MB-435; type: cell-based, human; conditions: concentration corresponding to 50% growth inhibition, read-out: cytotoxicity (GI50) breast MDA-MB-435
Protocol: (§1) Selected indenoisoquinolones described herein were examined for antiproliferative activity against the human cancer cell lines in the National Cancer Institute screen, in which the activity of each compound was evaluated with approximately 55 different cancer cell lines of diverse tumor origins.

human cancer cell lines = experiment: NCI screen mean graph midpoint over approximately 55 cancer cell lines; type: cell-based; conditions: for GI50: read-out: MGM (mean graph midpoint for growth inhibition); for cytotoxicity compared with other compounds: human cancer cell cultures
Protocol: Selected indenoisoquinolones described herein were examined for antiproliferative activity against the human cancer cell lines in the National Cancer Institute screen, in which the activity of each compound was evaluated with approximately 55 different cancer cell lines of diverse tumor origins. […] The relative activities of selected indenoisoquinolines described herein were obtained from the top 1-mediated DNA cleavage assay, and are also shown in Table 1. Compounds 2 and 7 are also included the Table 1.

Human recombinant top1 = biological target: T1, Human recombinant top1 (Homo sapiens, UniProt P11387); experiment: Top1-mediated DNA cleavage reactions; type: biochemical; parameters: key to Top 1 Cleavage: weak activity (+); activity similar to compound 2 (++); activity greater than compound 2 (+++); conditions: for Top 1 Cleavage: tested at concentrations ranging up to 10 μM, relative to compound 2
T1 construct: made in house
T1 sequence (P11387 1-765): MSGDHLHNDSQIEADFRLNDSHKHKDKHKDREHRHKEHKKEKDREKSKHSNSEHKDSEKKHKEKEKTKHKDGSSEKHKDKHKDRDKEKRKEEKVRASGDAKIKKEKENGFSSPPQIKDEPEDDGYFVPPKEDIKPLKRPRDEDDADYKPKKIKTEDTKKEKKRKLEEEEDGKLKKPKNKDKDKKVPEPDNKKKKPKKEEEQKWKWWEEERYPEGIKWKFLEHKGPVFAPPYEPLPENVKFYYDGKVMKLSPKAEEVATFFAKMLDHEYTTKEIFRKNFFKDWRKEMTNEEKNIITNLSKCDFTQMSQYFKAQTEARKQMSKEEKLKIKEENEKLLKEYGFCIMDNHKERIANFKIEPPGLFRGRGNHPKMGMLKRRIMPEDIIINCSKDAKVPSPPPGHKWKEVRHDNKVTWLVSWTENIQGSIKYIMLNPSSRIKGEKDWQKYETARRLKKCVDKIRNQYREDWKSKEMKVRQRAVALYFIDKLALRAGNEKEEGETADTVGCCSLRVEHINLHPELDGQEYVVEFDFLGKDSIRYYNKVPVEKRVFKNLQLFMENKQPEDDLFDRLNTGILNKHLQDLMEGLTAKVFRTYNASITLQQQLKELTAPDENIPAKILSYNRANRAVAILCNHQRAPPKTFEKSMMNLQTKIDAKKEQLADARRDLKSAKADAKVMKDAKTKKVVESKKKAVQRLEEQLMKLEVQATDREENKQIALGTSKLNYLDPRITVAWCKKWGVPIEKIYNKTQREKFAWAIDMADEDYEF
Protocol: Human recombinant top1 was purified from Baculovirus as described by Pourquier et al. in J. Biol. Chem. 274:8516-23 (1999), the disclosure of which is incorporated herein by reference. The 161 bp fragment from pBluescript SK(−) phagemid DNA (Stratagene, La Jolla, Calif.) was cleaved with the restriction endonuclease Pvu II and Hind III (New England Biolabs, Beverly, Mass.) in supplied NE buffer 2 (10 μL reactions) for 1 h at 37° C., and separated by electrophoresis in a 1% agarose gel made in 1×TBE buffer. The 161 bp fragment was eluted from the gel slice (centrilutor by Amicon) and concentrated in a centricon 50 centrifugal concentrator (Amicon, Beverly, Mass.). Approximately 200 ng of the fragment was 3′-end labeled at the Hind III site by fill-in reaction with [alpha-^32P]-dGTP and 0.5 mM dATP, dCTP, and dTTP, in React 2 buffer (50 mM Tris-HCl, pH 8.0, […], 50 mM NaCl) with 0.5 units of DNA polymerase I (Klenow fragment). Unincorporated ^32P-dGTP was removed using mini Quick Spin DNA columns (Roche, Indianapolis, Ind.), and the eluate containing the 3′-end-labeled 161 bp fragment was collected. Aliquots (approximately 50,000 dpm/reaction) were incubated with top1 at 22° C. for 30 min in the presence of the tested drug. Reactions were terminated by adding SDS (0.5% final concentration). The samples (10 μL) were mixed with 30 μL of loading buffer (80% formamide, 10 mM sodium hydroxide, 1 mM sodium EDTA, 0.1% xylene cyanol, and 0.1% bromophenol blue, pH 8.0). Aliquots were separated in denaturing gels (16% polyacrylamide, 7 M urea). Gels were dried and visualized by using a Phosphoimager and ImageQuant software (Molecular Dynamics, Sunnyvale, Calif.).

UACC-62 = experiment: NCI screen antiproliferative activity, melanoma UACC-62; type: cell-based; conditions: Homo sapiens, concentration corresponding to 50% growth inhibition, read-out: cytotoxicity (GI50) melanoma UACC-62
Protocol: as §1

OVCAR-3 = experiment: NCI screen antiproliferative activity, ovarian OVCAR-3; type: cell-based; conditions: Homo sapiens, concentration corresponding to 50% growth inhibition, read-out: cytotoxicity (GI50) ovarian OVCAR-3
Protocol: as §1

SN12C = experiment: NCI screen antiproliferative activity, renal SN12C; type: cell-based; conditions: Homo sapiens, concentration corresponding to 50% growth inhibition, read-out: cytotoxicity (GI50) renal SN12C
Protocol: as §1

HOP-62 = experiment: NCI screen antiproliferative activity, lung HOP-62; type: cell-based; conditions: Homo sapiens, concentration corresponding to 50% growth inhibition, read-out: cytotoxicity (GI50) lung HOP-62
Protocol: as §1

HCT-116 = experiment: NCI screen antiproliferative activity, colon HCT-116; type: cell-based; conditions: Homo sapiens, concentration corresponding to 50% growth inhibition, read-out: cytotoxicity (GI50) colon HCT-116
Protocol: as §1

SF-539 = experiment: NCI screen antiproliferative activity, CNS SF-539; type: cell-based; conditions: Homo sapiens, concentration corresponding to 50% growth inhibition, read-out: cytotoxicity (GI50) CNS SF-539
Protocol: as §1

DU-145 = experiment: NCI screen antiproliferative activity, prostate DU-145; type: cell-based; conditions: Homo sapiens, concentration corresponding to 50% growth inhibition, read-out: cytotoxicity (GI50) prostate DU-145
Protocol: as §1

Compound | GI50 (MDA-MB-435) [µM] | GI50 (human cancer cell lines; average GI50 of all approximately 55 cell lines, values outside 10^-8 to 10^-4 molar taken as the limits) | Top 1 Cleavage (Human recombinant top1) | GI50 (UACC-62) [µM] | GI50 (OVCAR-3) [µM] | GI50 (SN12C) [µM] | GI50 (MDA-MB-435; Homo sapiens) [µM] | GI50 (human cancer cell lines; Homo sapiens) [µM] | top1 inhibitory activity compared with other compounds (Human recombinant top1) | melting point | GI50 (HOP-62) [µM] | GI50 (HCT-116) [µM] | GI50 (SF-539) [µM] | GI50 (DU-145) [µM] | cytotoxicity compared with other compounds (human cancer cell lines) | pattern of top1-mediated DNA cleavage sites (Human recombinant top1)
COc1cc2c3c(n(C)c(=O)c2cc1OC)-c1cc2c(cc1C3=O)OCO2 [compound 2, reference compound] | 96 | 20.0 µM and 20 µM | ++ |  |  |  |  |  |  |  |  |  |  |  |  | 
COc1cc2c3c(n(C)c(=O)c2cc1OC)-c1cc2c(cc1C3=CCCCCBr)OCO2 [compound 20, 11-(5′-Bromopentylidene)-5,6-dihydro-2,3-dimethoxy-6-methyl-8,9-methylenedioxy-5-oxo-11H-indeno[1,2-c]isoquinoline] |  |  |  | > 100 | > 100 | > 100 | > 100 | 33.1 | higher inhibitory activity against top1 than the four-carbon alkenyl halides 19 and 24 | 196 to 197 °C |  |  |  |  |  | 
O=c1c2ccccc2cc2n1Cc1cc3ccccc3nc1-2 [compound 13, 12H-5,11a-Diaza-dibenzo[b,h]fluoren-11-one] |  |  | ++ | 97.2 | 39.8 | > 100 | 41.8 | 58.9 |  |  | 68.2 | 32.7 | 66.7 | > 100 | generally less cytotoxic than compound 2 | better resembled that of compound 2 than that of camptothecin
COc1cc2c3c(n(C)c(=O)c2cc1OC)-c1cc2c(cc1C3=CCCCCl)OCO2 [compound 18, 11-(4′-Chlorobutylidene)-5,6-dihydro-2,3-dimethoxy-6-methyl-8,9-methylenedioxy-5-oxo-11H-indeno[1,2-c]isoquinoline] |  |  | + |  |  | > 100 | > 100 | 33.1 |  | 196 to 201 °C |  |  |  |  |  | 
COc1cc2c3c(n(C)c(=O)c2cc1OC)-c1cc2c(cc1C3=CCCCI)OCO2 [compound 24, 11-(4′-Iodobutylidene)-5,6-dihydro-2,3-dimethoxy-6-methyl-8,9-methylenedioxy-5-oxo-11H-indeno[1,2-c]isoquinoline] |  |  | 0 | 3.5 | 22.8 | 8.8 | 5.2 | 16.8 |  | 173 to 174.5 °C | 27.6 | 0.56 | 4.3 | 28.7 | slightly more cytotoxic than compounds 18-20 | 
COc1cc2c3c(n(C)c(=O)c2cc1OC)-c1cc2c(cc1C3=CCCCBr)OCO2 [compound 19, 11-(4′-Bromobutylidene)-5,6-dihydro-2,3-dimethoxy-6-methyl-8,9-methylenedioxy-5-oxo-11H-indeno[1,2-c]isoquinoline] |  |  | 0 | 11.4 | 58.1 | > 100 | > 100 | 27.8 |  | 197 to 199 °C | 19.4 | 37.8 | 30 | 67.8 |  | 
COc1cc2c3c(n(C)c(=O)c2cc1OC)-c1cc2c(cc1C3=CCCCCCBr)OCO2 [compound 21, 11-(6′-Bromohexylidene)-5,6-dihydro-2,3-dimethoxy-6-methyl-8,9-methylenedioxy-5-oxo-11H-indeno[1,2-c]isoquinoline] |  |  | + |  |  |  |  | 7.8 | higher inhibitory activity against top1 than the four-carbon alkenyl halides 19 and 24 | 182 to 185 °C |  |  |  |  | slightly more cytotoxic than compounds 18-20 | 
COc1cc2cc3n(c(=O)c2cc1OC)Cc1cc2ccccc2nc1-3 [compound 8, 8,9-Dimethoxy-12H-5,11a-diaza-dibenzo[b,h]fluoren-11-one] |  |  | + | > 100 | > 100 | > 100 | > 100 | 91.2 |  |  | > 100 | 57.3 | > 100 | > 100 | generally less cytotoxic than compound 2 | 
COc1cc2c3c(n(C)c(=O)c2cc1OC)-c1cc2c(cc1C3=CCCN)OCO2 [compound 26, 11-(3′-Aminopropylidene)-5,6-dihydro-2,3-dimethoxy-6-methyl-8,9-methylenedioxy-5-oxo-11H-indeno[1,2-c]isoquinoline] |  |  | +++ | 0.2 | 0.56 | 0.58 | 1.8 | 0.34 | more potent as a top1 poison than compound 2 | > 180 °C (dec.) | 0.071 | 0.028 | 0.42 | 0.37 |  | 
